Source: patent US5736523A, “Antineoplastic heteronapthoquinones” (Biochem Pharma Inc., priority 1995, dated 1998)
Like-named read-outs stand apart in the source and are kept apart here.

Assays:
Assay type in all cases: cell-based, human
[1] = test system: T47D (Ductal carcinoma of breast); assay: In vitro cytotoxicity, microculture tetrazolium (MTT) assay, T47D
Description: (§1) In Vitro Cytotoxicity--Microculture Tetrazolium Assay
(§2) The microculture tetrazolium assay was used to test in vitro cytotoxicity. This assay is described in Plumb, J. A. et al., 1989 Cancer Research 49, 4435-4440, which is herein incorporated by reference. The cytotoxicity of compounds towards tumor cells is measured in vitro using the assay. This assay method is based upon the ability of live, but not dead cells to reduce the yellow water soluble dye 3-(4;5-dimethylthiazol-2-yl)-2,5-diphenyltetrazolium bromide (MTT) to its water insoluble purple formazan product.
(§3) Human Tumor Cell lines, used were:
T47D (Ductal carcinoma of breast)--ATCC catalog #HTB-133.
(§4) The cells were maintained in exponential growth in culture in minimal essential media (MEM) supplemented with non-essential amino acids, and containing 15% (v/v) fetal bovine serum, 5 mM L-glutamine, 1 mM sodium pyruvate, and 0.1 U/ml insulin. All cell lines were grown at 37° C. in an atmosphere of 5% CO2 in air.
(§5) Test compounds: 20 mM in DMSO and diluted to a final concentration of 200 μM in culture medium before use.
(§6) The following is the generic description of the assay method. It should be noted that although the conditions described work well with the cells listed above, the initial plating density and the MTT concentration used should be verified for each new cell line used to test compounds.
(§7) For each assay, doxorubicin is included as an inter-assay standard. This allows us to monitor the behaviour of the assay in general, and in particular, to check that the SKVLB line has maintained its resistant phenotype.
(§8) The plate layout is done in the following manner: The assays are carried out in 96-well (8 well×12 well) microtiter plates. Serial dilutions of the compound are tested along the length of the plate. A 1:3 serial dilution of compound in culture medium covers a concentration range from 100 μM to 1.7 nM. Each concentration of compound is tested in quadruplet, allowing two compounds to be tested per plate. Wells containing no cells (blank) and cells with no test compound (control) are included on each plate.
(§9) Cells are plated out in 100 μl of culture medium in the microtiter plates at a density of around 1,500-4,000 cells per well. The plates are incubated overnight to allow the cells to become adherent after which the test compound is added (100 μl of appropriate dilution per well). The cells are incubated with test compound at 37° C. for 48 h after which the compound is replaced with fresh medium. After a further 48 h incubation at 37° C., 50 μl of MTT solution (2 mg/ml) is added to each well. The plates are incubated in the dark for 4 h at 37° C. after which the medium is removed. The MTT formazan product is extracted from the cells by the addition of 200 μl DMSO followed by 50 μl of Sorensen's buffer. The plates are shaken briefly and the absorbance at 570 nm is read using a Molecular Devices UV max plate reader. Curves are fit to the MTT assay data using a four parameter logistic equation, and the data are normalized to fit a 0% to 100% survival scale.

[2] = test system: SKVLB (Ovarian; multidrug resistant); assay: In vitro cytotoxicity, microculture tetrazolium (MTT) assay, SKVLB; conditions: for VLB/OV3: ratio SKVLB / SKOV3
Description: as §1, §2, §3
SKVLB (Ovarian; multidrug resistant)--Dr. V. Ling, Ontario
as §4, §5, §6, §7, §8, §9

[3] = test system: HT 29 (Colon adenocarcinoma); assay: In vitro cytotoxicity, microculture tetrazolium (MTT) assay, HT 29
Description: as §1, §2, §3
HT 29 (Colon adenocarcinoma) ATCC catalog #HTB-38.
as §4, §5, §6, §7, §8, §9

[4] = test system: SKOV3 (Ovarian adenocarcinoma); assay: In vitro cytotoxicity, microculture tetrazolium (MTT) assay, SKOV3
Description: as §1, §2, §3
SKOV3 (Ovarian adenocarcinoma)--provided by Dr. V. Ling,
as §4, §5, §6, §7, §8, §9

[5] = test system: Lox (Melanoma); assay: In vitro cytotoxicity, microculture tetrazolium (MTT) assay, Lox
Description: as §1, §2, §3
Lox (Melanoma)--Southern Research Institute.
as §4, §5, §6, §7, §8, §9

[6] = Homo sapiens, HT-29, HT29, read-out: IC50
[7] = SKVLB, multidrug resistant, read-out: IC50

## COC1OC(C(=O)NCCN2CCOCC2)=CC2=C1C(=O)c1ccccc1C2=O (stereo not shown) [BCH2171, 1-methoxy-3-[2-(N-morpholine)ethylaminocarbonyl]-5,10-dioxo-5,10-dihydro-1H-naphtho-[2,3-c]-pyran]
[1]; Homo sapiens, read-out: IC50
  IC50: 0.398 µM
[2]
  VLB/OV3: 2.16
[3]; HT29, read-out: IC50
  IC50: 0.219 µM

## COC1OC(C(=O)NCCCN2CCCC2=O)=CC2=C1C(=O)c1ccccc1C2=O (stereo not shown) [BCH2166, 1-methoxy-3-(3-N-pyrrolidinomylpropylaminocarbonyl)-5,10-dioxo-5,10-dihydro-1H-naphtho-[2,3-c]-pyran]
[1]; Homo sapiens, read-out: IC50
  IC50: 0.237 µM
[2]; Homo sapiens, SKVLB, multidrug resistant, read-out: IC50
  IC50: 0.495 to 1.2 µM
[2]
  VLB/OV3: 2.73
[3]; [6]
  IC50: 0.443 to 1.2 µM
[4]; Homo sapiens, SK-OV-3, SKOV3, read-out: IC50
  IC50: 0.14 to 0.181 µM

## COP(=O)(CC(=O)[C@@H]1CC2=C(C(=O)c3ccccc3C2=O)[C@@H](O[C@H]2C[C@H](NC(=O)C(F)(F)F)[C@H](O)[C@H](C)O2)O1)OC [BCH1689, (1'S,1R,3S)-1-(2',3',6'-trideoxy-3'-trifluoroacetamido-L-lyxohexopyranose)-3-dimethylphosphonoacetyl-5,10-dioxo-3,4,5-10-tetrahydro-1H-naphtho-[2,3-c]-pyran]
[5]; Homo sapiens
  IC50: 1.72 µM
[2]; Homo sapiens
  IC50: 16.5 µM
[2]
  VLB/OV3: 5.94
[3]; Homo sapiens, HT-29
  IC50: 3.66 µM
[4]; Homo sapiens, SK-OV-3
  IC50: 2.78 µM

## (1'S,1S,3R)-methyl-(6 and 9-hydroxy-1-[2',3',6'-trideoxy-3'-trifluoroacetamido-4'-hydroxy-L-lyxohexopyranose]-5,10-dioxo-3,4,5,10-tetrahydronaphtho-[2,3-c]-pyran-3-yl-ketone [BCH2078]
[1]; read-out: IC50
  IC50: 0.507 µM
[2]; [7]
  IC50: 2.24 µM
[2]
  VLB/OV3: 5.41
[3]; HT29, read-out: IC50
  IC50: 0.269 µM
[4]; SKOV3, read-out: IC50
  IC50: 0.414 µM

## CC(=O)C1CC2=C(C(=O)c3ccccc3C2=O)C(OC2CC(NC(=O)C(F)(F)F)C(O)C(C)O2)O1 (stereo not shown) [BCH2145]
[5]; read-out: IC50
  IC50: 0.83 µM
[2]; [7]
  IC50: 13.4 µM
[2]
  VLB/OV3: 1.64
[3]; HT29, read-out: IC50
  IC50: 2.48 µM
[4]; SKOV3, read-out: IC50
  IC50: 8.19 µM

## CC(=O)C1CC2=C(C(=O)c3ccccc3C2=O)C(O)O1 (stereo not shown) [BCH1148, Methyl (1-hydroxy-5,10-dioxo-3,4,5,10-tetrahydronaphtho [2,3-C]pyran-3-yl) ketone]
[3]; [6]
  IC50: > 10 µM

## CC(=O)O[C@@H]1[C@H](C)O[C@@H](OC2OC(C(C)=O)CC3=C2C(=O)c2ccccc2C3=O)C[C@@H]1OC(C)=O (mixture of isomers) [BCH2118, (1'S,1S,3R) and (1'S,1R,3S)-methyl-(1-[dideoxy-2',6'-diacetoxy-3',4'-L-lyxohexopyranose]-5,10-dioxo-3,4,5,10-tetrahydronaphtho-[2,3-c]-pyran-3-yl) ketone]
[1]; read-out: IC50
  IC50: 0.244 µM
[2]; [7]
  IC50: 0.79 µM
[2]
  VLB/OV3: 6.68
[3]; HT29, read-out: IC50
  IC50: 0.203 µM
[4]; SKOV3, read-out: IC50
  IC50: 0.12 µM

## CC[C@H]1CC2=C(C(=O)c3ccccc3C2=O)[C@H](NC(C)=O)O1 (relative stereo) [BCH2027, Trans-5,10-dioxo-1-acetamido-3-ethyl-3,4,5,10-tetrahydro-1H-naphtho-[2,3-c]-pyran]
[1]; Homo sapiens
  IC50: 23.3 µM
[5]; Homo sapiens
  IC50: 3.04 µM
[2]
  VLB/OV3: 4.02

## CC[C@H]1CC2=C(C(=O)c3ccccc3C2=O)[C@H](O[C@H]2C[C@H](NC(=O)C(F)(F)F)[C@H](O)[C@H](C)O2)O1 [BCH2020, (1'S,1S,3S)-5,10-dioxo-3-ethyl-1-(2',3',6'-trideoxy-3'-trifluoroacetamido-L-lyxohexopyranose)-3,4,5,10-tetrahydro-1H-naphtho-[2,3-c]-pyran]
[2]
  VLB/OV3: 2.31

## C=C(C)[C@H]1CC2=C(C(=O)c3ccccc3C2=O)[C@H](OC)O1 (relative stereo) [BCH2148, (trans)-5,10-dioxo-3-isopropenyl-1-methoxy-3,4,5,10-tetrahydro-1H-naphtho-[2,3-c]-pyran]
[5]; Homo sapiens
  IC50: 1.55 µM
[2]
  VLB/OV3: 0.79

## CC(=O)C1CC2=C(C(=O)c3ccccc3C2=O)C(OCC2CCN(C(=O)OC(C)(C)C)CC2)O1.Cl (racemic) [BCH2068, Methyl-(1-O-[N-BOC-4-piperidinemethanol]-5,10-dioxo-3,4,5,10-tetrahydronaphthaleno-[2,3-c]pyran-3-yl) ketone, racemic, hydrochloride]
[1]; read-out: IC50
  IC50: 0.422 µM
[5]; read-out: IC50
  IC50: 1.3 µM
[2]; [7]
  IC50: 1.2 µM
[2]
  VLB/OV3: 1
[3]; HT29, read-out: IC50
  IC50: 0.13 µM

## CC(=O)CC1CC2=C(C(=O)c3cccc(O)c3C2=O)C(O[C@H]2C[C@H](NC(=O)C(F)(F)F)[C@H](O)[C@H](C)O2)O1 (mixture of isomers) [BCH2098, (1'-S,1-S,3-R) and (1'-S,1-R,3-S)-1-(6-hydroxy-1-(2',3',6'-trideoxy-3'-trifluoroacetamido,4-hydroxy-L-lyxopyranose)-5,10-dioxo-3,4,5,10 tetrahydronaphtho-[2,3-c]pyran-3-yl) propane-2-one]
[2]
  VLB/OV3: 4

## CC(=O)O[C@H]1[C@@H](I)[C@H](O[C@H]2O[C@H](C(C)=O)CC3=C2C(=O)c2ccccc2C3=O)O[C@@H](C)[C@H]1OC(C)=O [BCH1666, (1'S,1R,3S)-methyl-(1-[2',6'-dideoxy-3'-4'-diacetoxy-2'-iodo-L-lyxohexopyranose]-5,10-dioxo-3,4,5,10-tetrahydronaphtho [2,3-c]-pyran-3-yl) ketone]
[2]
  VLB/OV3: 0.75

## CC(=O)C1CC2=C(C(=O)c3ccccc3C2=O)C(OCC2CCCN(C(=O)OC(C)(C)C)C2)O1 (mixture of isomers) [BCH2060, Methyl-(1-O-[N-BOC-3-piperidinemethanol]-5,6-dioxo-3,4,5,10-tetrahydronaphthaleno-[2,3-c]pyran-3-yl) ketone, mixture of isomers]
[2]
  VLB/OV3: 2.19

## CC(=O)[C@@H]1CC2=C(C(=O)c3ccccc3C2=O)[C@@H](O[C@H]2C[C@H](NC(=O)C(F)(F)F)[C@H](I)[C@H](C)O2)O1 [BCH1620, (1'-S,1-R,3-S)-methyl-(1-[2',3',6'-trideoxy-3'-trifluoroacetamido-4'-iodo-L-lyxohexopyranose]-5,10-dioxo-3,4,5,10-tetrahydronaphtho-[2,3-c]-pyran-3-yl)-ketone]
[2]
  VLB/OV3: 51.31

## C[C@@H]1O[C@@H](OC2OC(C#N)CC3=C2C(=O)c2ccccc2C3=O)C[C@H](NC(=O)C(F)(F)F)[C@@H]1O (mixture of isomers) [BCH1688, (1'-S,1-R,3-S) and (1'-S,1-S,3-R)-3-cyano-1-[2',3',6'-trideoxy-3'-trifluoroacetamido-4'-hydroxy-L-lyxohexopyranose)-5,10-dioxo-3,4,5,10-tetrahydronaphtho-[2,3-C] pyran-3-yl]
[2]
  VLB/OV3: 4.37

## COC1OC(C(=O)NCCN2CCOCC2)=CC2=C1C(=O)c1ccccc1C2=O (stereo not shown) [BCH2170, 1-methoxy-3-[2-(N-morpholino)ethylaminocarbonyl]-5,10-dioxo-5,10-dihydro-1H-naphtho-[2,3-c]-pyran]
[2]
  VLB/OV3: 1.52

## COP(=O)(CC(=O)[C@H]1CC2=C(C(=O)c3ccccc3C2=O)[C@H](O[C@H]2C[C@H](NC(=O)C(F)(F)F)[C@H](O)[C@H](C)O2)O1)OC [BCH1690, (1'S,1S,3R)-1-(2',3',6'-trideoxy-3'-trifluoroacetamido-L-lyxohexopyranose)-3-dimethylphosphonoacetyl-5,10-dioxo-3,4,5-10-tetrahydro-1H-naphtho-[2,3-c]-pyran]
[5]; Homo sapiens
  IC50: 1.62 µM
[2]; Homo sapiens
  IC50: 13.7 µM
[2]
  VLB/OV3: 7.70
[3]; Homo sapiens, HT-29
  IC50: 3.01 µM
[4]; Homo sapiens, SK-OV-3
  IC50: 1.78 µM

## COC(=O)[C@H](CC(C)C)NC(=O)[C@H](CO[C@H]1O[C@H](C(C)=O)CC2=C1C(=O)c1ccccc1C2=O)NC(=O)OC(C)(C)C [BCH1998, (1S,2'S,3S,5'S)-Methyl-(1-O-[N-BOC-Serine-Leucine-Me ester]-5,10-dioxo-3,4,5,10-tetrahydro-1-H-naphtho [2,3-c]pyran-3-yl) ketone]
[2]
  VLB/OV3: 13.28
